Assay results as given in patent US6124351A, “Amino acid derivatives having a nitric oxide synthase inhibiting action” (priority 1994, dated 2000).
“Also recorded” adds a separate entry of the source. Counter-ions that a name gives are not always drawn. Like-named read-outs stand apart in the source and are kept apart here.

Columns and labels:
iNOS [1] = details: cited from earlier work
N-cNOS = biological target: T1, N-cNOS (Rattus norvegicus, UniProt P29476); test: biochemical; details: for IC50: N-cNOS, rat cerebral cortex, 100 μM L-[3H] arginine, 37° C., 10 min, pH 7.4, mean ± standard error
T1 construct: a soluble cytosolic fraction of the finally obtained supernate was used as the crude enzyme sample of N-cNOS; from tissue; host or cells: cerebral cortex of normal untreated male SD rats, 100,000×g soluble cytosolic fraction
T1 sequence (P29476 whole entry): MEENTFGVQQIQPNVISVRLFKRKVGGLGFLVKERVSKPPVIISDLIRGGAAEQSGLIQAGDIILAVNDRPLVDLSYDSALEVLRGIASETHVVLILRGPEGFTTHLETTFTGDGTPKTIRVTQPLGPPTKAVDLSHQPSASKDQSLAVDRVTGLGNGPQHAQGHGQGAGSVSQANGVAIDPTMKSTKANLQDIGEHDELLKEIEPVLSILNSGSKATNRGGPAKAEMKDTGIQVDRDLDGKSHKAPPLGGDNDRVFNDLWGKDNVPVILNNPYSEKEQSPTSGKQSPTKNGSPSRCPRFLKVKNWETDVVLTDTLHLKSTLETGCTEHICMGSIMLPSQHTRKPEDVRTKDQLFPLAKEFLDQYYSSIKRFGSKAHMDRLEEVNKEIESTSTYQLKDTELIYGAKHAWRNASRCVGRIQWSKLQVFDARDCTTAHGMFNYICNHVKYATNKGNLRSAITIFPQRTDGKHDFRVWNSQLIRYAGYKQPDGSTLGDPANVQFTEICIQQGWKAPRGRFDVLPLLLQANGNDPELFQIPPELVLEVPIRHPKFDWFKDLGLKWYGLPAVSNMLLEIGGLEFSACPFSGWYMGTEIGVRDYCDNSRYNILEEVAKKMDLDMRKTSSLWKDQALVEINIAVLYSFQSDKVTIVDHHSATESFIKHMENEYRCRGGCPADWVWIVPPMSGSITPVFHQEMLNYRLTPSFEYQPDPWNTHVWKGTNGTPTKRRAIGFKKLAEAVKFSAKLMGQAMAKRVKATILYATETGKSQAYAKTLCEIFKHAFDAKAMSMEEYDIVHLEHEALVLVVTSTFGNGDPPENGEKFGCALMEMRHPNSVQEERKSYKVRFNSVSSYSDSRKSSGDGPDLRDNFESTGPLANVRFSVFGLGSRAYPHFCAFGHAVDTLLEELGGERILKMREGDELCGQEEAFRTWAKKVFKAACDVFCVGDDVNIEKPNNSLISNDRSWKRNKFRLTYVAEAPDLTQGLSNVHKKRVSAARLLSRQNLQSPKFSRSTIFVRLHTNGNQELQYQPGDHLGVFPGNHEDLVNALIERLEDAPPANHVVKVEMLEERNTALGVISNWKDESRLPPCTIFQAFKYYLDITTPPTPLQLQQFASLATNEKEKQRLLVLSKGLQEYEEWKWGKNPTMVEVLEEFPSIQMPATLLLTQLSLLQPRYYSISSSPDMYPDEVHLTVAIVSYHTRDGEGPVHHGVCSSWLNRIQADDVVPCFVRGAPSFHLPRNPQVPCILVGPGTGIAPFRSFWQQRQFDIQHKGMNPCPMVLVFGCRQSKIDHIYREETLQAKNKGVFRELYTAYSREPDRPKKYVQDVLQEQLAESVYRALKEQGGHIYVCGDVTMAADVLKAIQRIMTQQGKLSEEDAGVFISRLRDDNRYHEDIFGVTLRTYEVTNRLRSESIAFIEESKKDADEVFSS
Procedure: The crude enzyme sample of N-cNOS was prepared by the following procedure. Normal untreated male SD rats (body weight, 300-400 g) were decapitated; the whole brain was immediately removed from each animal and the cerebral cortex was separated on ice. Then, 5 volumes of 50 mM Tris-HCl containing 1 mM DTT (pH 7.4) was added and the mixture was homogenized for 3 min, followed by centrifugation at 1,000×g for 10 min. The resulting supernate was further centrifuged at 100,000×g for 60 min and a soluble cytosolic fraction of the finally obtained supernate was used as the crude enzyme sample of N-cNOS.

iNOS [2] = biological target: T2, iNOS (Rattus norvegicus, UniProt Q06518); test: Inhibition of iNOS, soluble fraction of lungs of LPS-treated rats; conversion of L-[3H] arginine to L-[3H] citrulline; type: biochemical
T2 construct: a soluble cytosolic fraction of the finally obtained supernate was used as the crude enzyme sample of iNOS; from tissue; host or cells: lungs of LPS-treated rats, 100,000×g soluble cytosolic fraction
T2 sequence (Q06518 whole entry): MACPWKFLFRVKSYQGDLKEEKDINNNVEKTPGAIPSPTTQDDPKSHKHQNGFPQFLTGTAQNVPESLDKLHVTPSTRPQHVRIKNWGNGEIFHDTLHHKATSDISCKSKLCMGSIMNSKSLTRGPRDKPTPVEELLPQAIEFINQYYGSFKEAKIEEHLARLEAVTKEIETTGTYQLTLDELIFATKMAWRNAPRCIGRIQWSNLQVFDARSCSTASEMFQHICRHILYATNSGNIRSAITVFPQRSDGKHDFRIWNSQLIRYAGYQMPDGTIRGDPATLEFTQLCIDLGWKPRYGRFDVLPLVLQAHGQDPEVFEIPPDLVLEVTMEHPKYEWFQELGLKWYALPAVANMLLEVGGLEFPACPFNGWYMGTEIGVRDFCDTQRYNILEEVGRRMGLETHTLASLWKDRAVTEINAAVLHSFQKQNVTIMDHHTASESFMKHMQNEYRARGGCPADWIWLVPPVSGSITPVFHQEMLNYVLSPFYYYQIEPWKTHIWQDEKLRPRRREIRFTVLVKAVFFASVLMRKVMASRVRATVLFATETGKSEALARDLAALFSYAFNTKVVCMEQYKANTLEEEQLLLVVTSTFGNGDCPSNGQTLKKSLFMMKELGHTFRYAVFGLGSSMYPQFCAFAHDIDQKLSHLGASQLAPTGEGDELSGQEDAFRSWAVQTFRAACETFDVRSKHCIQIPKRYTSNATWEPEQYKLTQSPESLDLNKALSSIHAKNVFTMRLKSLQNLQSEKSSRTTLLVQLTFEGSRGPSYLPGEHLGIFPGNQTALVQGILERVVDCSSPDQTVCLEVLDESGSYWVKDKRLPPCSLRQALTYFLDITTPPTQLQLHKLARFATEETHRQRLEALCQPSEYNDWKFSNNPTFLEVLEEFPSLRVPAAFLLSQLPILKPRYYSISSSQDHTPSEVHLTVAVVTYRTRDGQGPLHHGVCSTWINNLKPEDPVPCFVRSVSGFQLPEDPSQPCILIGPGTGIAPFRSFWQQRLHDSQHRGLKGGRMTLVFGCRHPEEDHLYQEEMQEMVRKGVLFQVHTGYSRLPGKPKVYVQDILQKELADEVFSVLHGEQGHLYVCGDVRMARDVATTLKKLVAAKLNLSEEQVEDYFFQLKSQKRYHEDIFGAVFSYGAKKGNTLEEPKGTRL
Procedure: (§1) Compounds of the invention were evaluated for their inhibitory effect against NOS isoforms in comparison with the well known NOS inhibitors. The following were used as crude enzyme fractions of the respective NOS isoforms: a soluble fraction of the rat cerebral cortex for N-cNOS and a homogenate of cow pulmonary arterial endothelium cell (CPAE) for E-cNOS, whereas for iNOS, rats were administered lipopolysaccharide (LPS, 10 mg/kg, i.p.) and lungs were removed 6 h later to prepare soluble fractions.
The crude enzyme sample of iNOS was prepared by the following procedure. Rats were administered intraperitoneally with LPS (10 mg/kg) and, 6 h later, perfused in a transcardiac manner with physiological saline containing 10 U/ml of heparin; thereafter, lungs were removed. Subsequently, 5 volumes of 50 mM Tris-HCl containing 1 mM DTT (pH 7.4) was added and the mixture was homogenized for 3 min, followed by centrifugation of the homogenate at 1,000×g for 10 min. The resulting supernate was centrifuged at 100,000×g for 60 min and a soluble cytosolic fraction of the finally obtained supernate was used as the crude enzyme sample of iNOS.
The method of measuring NOS activity was basically the same as already reported by the present inventors and consisted of determining quantitatively the conversion of a substrate L-[^3 H] arginine to a reaction product L-[^3 H] citrulline [Nagafuji et al., in Brain Edema IX (Ito et al. eds.) 60, pp. 285-288, 1994, Acta Neurochir., Springer-Verlag].
The reaction solution consisted of 100 μM L-[^3 H] arginine, a prepared NOS enzyme (6-20 μg/ml protein), 1.25 mM CaCl2, 1 mM EDTA, 10 μg/ml calmodulin, 1 mM NADPH, 100 μM tetrahydrobiopterine, 10 μM FAD, 10 μM FMN and 50 mM Tris-HCl (pH 7.4), to which one of the compounds of the invention or one of the control compounds was added.
(§2) The reaction was started by addition of L-[^3 H] arginine and following incubation at 37° C. for 10 min, the reaction was terminated by addition of 2 ml of 50 mM Tris-HCl (pH 5.5) containing 1 mM EDTA and placing the mixture on ice. The reaction solution was passed through a cation-exchange resin column (Dowex AG50WX-8, Na^+ form, 3.2 ml) to separate the reaction product L-[^3 H] citrulline from the unreacted residual substrate L-[^3 H] arginine. The elute was combined with another elute resulting from the passage of distilled water (3 ml) through the column and put into a mini vial for recovery of L-[^3 H] citrulline. Thereafter, 5 ml of a scintillation fluid was added and the contained radioactivity was measured with a liquid scintillation counter to determine the amount of L-[^3 H] citrulline. The protein concentration of each crude enzyme sample was determined with a micro-assay kit of Biorad Co.
(§3) All data in Table 4 are expressed by mean ± standard error, with the number of cases indicated within parentheses.

E-cNOS = biological target: T3, E-cNOS (Bos taurus, UniProt P29473); test: Inhibition of E-cNOS, homogenate of cow pulmonary arterial endothelium cell (CPAE); conversion of L-[3H] arginine to L-[3H] citrulline; type: biochemical
T3 construct: the mixture was homogenized for 3 min to yield the crude enzyme sample of E-cNOS; endogenous in cells; host or cells: CPAE (cow pulmonary arterial endothelium cells), whole homogenate
T3 sequence (P29473 2-1205): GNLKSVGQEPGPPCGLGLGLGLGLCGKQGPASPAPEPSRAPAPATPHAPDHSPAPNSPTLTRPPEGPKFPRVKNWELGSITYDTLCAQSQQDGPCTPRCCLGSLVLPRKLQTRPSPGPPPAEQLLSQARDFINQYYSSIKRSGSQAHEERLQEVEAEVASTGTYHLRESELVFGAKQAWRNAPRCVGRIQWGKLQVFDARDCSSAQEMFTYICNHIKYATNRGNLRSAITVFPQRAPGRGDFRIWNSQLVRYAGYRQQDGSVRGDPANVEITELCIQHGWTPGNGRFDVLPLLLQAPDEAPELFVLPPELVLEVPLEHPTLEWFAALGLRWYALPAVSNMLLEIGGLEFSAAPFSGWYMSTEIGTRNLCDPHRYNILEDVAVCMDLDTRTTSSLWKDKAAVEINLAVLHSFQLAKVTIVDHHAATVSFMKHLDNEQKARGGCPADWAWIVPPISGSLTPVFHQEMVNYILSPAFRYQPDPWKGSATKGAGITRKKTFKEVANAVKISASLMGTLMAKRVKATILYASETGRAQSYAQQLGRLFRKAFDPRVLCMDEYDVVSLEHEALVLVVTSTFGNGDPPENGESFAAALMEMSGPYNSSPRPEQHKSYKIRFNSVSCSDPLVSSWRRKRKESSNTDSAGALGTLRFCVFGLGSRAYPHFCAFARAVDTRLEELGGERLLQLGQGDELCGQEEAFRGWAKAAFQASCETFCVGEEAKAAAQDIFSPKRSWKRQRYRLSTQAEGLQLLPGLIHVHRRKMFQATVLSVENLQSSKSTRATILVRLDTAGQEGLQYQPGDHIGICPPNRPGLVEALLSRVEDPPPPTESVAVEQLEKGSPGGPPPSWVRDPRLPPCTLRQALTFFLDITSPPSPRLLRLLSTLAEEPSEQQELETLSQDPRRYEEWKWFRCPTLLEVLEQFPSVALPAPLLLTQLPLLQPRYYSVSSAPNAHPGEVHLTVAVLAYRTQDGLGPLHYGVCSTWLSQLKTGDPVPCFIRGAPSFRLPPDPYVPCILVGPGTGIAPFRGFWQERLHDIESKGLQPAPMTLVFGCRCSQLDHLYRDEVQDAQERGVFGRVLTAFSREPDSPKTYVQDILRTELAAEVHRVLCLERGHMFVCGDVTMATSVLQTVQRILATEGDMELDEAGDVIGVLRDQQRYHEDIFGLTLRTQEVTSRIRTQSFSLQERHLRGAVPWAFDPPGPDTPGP
Procedure: as §1
The crude enzyme sample of E-cNOS was prepared by the following procedure. A cow pulmonary arterial endothelium cell (CPAE) was cultured in a MEM medium containing 20% of FBS. Several days later, the cells were detached from the flask using a solution of 0.25% trypsin containing 1 mM EDTA and after addition of 0.1 M phosphate-buffered saline (PBS; pH 7.4) diluted with physiological saline, centrifugation was conducted at 1,000 rpm for 5 min. The supernate was then discarded and upon addition of a suitable amount of PBS, centrifugation was performed at 1,000 rpm for 5 min to wash the cells. The same procedure was repeated using 50 mM Tris-HCl containing 1 mM DTT (pH 7.4) to wash the cells. The precipitating cells were added an adequate amount of 50 mM Tris-HCl containing 1 mM DTT (pH 7.4) and the mixture was homogenized for 3 min to yield the crude enzyme sample of E-cNOS.
as §2, §3

[3] = index of selectivity, N-cNOS vs iNOS
[4] = read-out: IC50 value iNOS (the concentration necessary to inhibit 50% activity), iNOS, LPS rat lung, 100 μM L-[3H] arginine, 37° C., 10 min, pH 7.4, mean ± standard error
[5] = E-cNOS, CPAE homogenate, 100 μM L-[3H] arginine, 37° C., 10 min, pH 7.4, mean ± standard error
[6] = compared with existing NOS inhibitors, dihydrochloride
[7] = index of selectivity, N-cNOS vs E-cNOS
[8] = iNOS, LPS rat lung, 100 μM L-[3H] arginine, 37° C., 10 min, pH 7.4, mean ± standard error

Row | Structure (SMILES) | Ratio of I50 values iNOS/N-cNOS (N-cNOS; [3]) | IC50 (E-cNOS; [5]) [µM] | IC50 (N-cNOS) [µM] | Ratio of I50 values E-cNOS/N-cNOS (N-cNOS; [7]) | IC50 (iNOS [2]; [8]) [µM] | further results
1 | N=C(N)NN [AG, aminoguanidine, reference compound] | 1.3 | – | – | – | – | selectivity for iNOS vs E-cNOS (in words) (iNOS [1]; Griffith et al. 1993): selectivity for iNOS in comparison with the E-cNOS inhibiting action; inhibiting potency and selectivity for iNOS (in words) (iNOS [1]; as a therapeutic against hypotension in sepsis): insufficient to warrant its use as a therapeutic effective against hypotension in sepsis; Ratio of I50 values E-cNOS/N-cNOS (N-cNOS): > 4.9; IC50 (iNOS [2]): 27.2 µM
2 | CCSC(=N)NCCC[C@H](N)C(=O)O [Example 2, δ-(S-ethylisothioureido)-L-norvaline] | – | – | – | – | – | E-cNOS inhibitory effect (in words) (E-cNOS): weak E-cNOS inhibitory effect; IC50 (E-cNOS): 0.492 ± 0.315 µM; N-cNOS inhibitory effect (in words) (N-cNOS; compared with existing NOS inhibitors): stronger N-cNOS inhibitory effect than the existing NOS inhibitors; also recorded: strong brain N-cNOS inhibitory effect; IC50 (iNOS [2]; [4]): 6.76 µM
3 | Cl.Cl.N=C(NCCC[C@H](N)C(=O)O)SCCF [Example 4, δ-(S-(2-fluoroethyl)-isothioureido)-L-norvaline dihydrochloride] | 47.7 | 1.31 | 0.0105 ± 0.0008 | 124.9 | 0.501 | E-cNOS inhibitory effect (in words) (E-cNOS): weak E-cNOS inhibitory effect; selectivity for N-cNOS or E-cNOS (in words) (N-cNOS; N-cNOS vs E-cNOS, compared with existing NOS inhibitors, dihydrochloride): more selective inhibitory effect on N-cNOS compared with the existing NOS inhibitors; also recorded: outstandingly high selective inhibitory effect on brain N-cNOS; N-cNOS inhibitory effect (in words) (N-cNOS; [6]): stronger N-cNOS inhibitory effect than the existing NOS inhibitors; also recorded: strong brain N-cNOS inhibitory effect; N-cNOS selective inhibitory effect (in words) (N-cNOS; over existing NOS inhibitors): by far superior N-cNOS selective inhibitory effect over the existing NOS inhibitors
4 | C=CCSC(=N)NCCC[C@H](N)C(=O)O.Cl.Cl [Example 6, δ-(S-(2-propenyl)isothioureido)-L-norvaline dihydrochloride] | 2.6 | 1.18 | 0.113 ± 0.006 | 10.4 | 0.298 | selectivity for N-cNOS or iNOS (in words) (N-cNOS; N-cNOS vs iNOS, compared with existing NOS inhibitors, dihydrochloride): extremely high selective inhibitory effect on iNOS; iNOS inhibitory effect (in words) (iNOS [2]; [6]): by far stronger iNOS inhibitory effect than the existing NOS inhibitors; also recorded: strong iNOS inhibitory effect; iNOS selective inhibitory effect (in words) (iNOS [2]; over existing NOS inhibitors): by far superior iNOS selective inhibitory effect over the existing NOS inhibitors
5 | O=[N+]([O-])c1cccc2cn[nH]c12 [Example 7-NI, 7-nitroindazole, reference compound] | – | – | – | – | 6.93 | –
6 | N[C@@H](CCCNC1=NCCS1)C(=O)O [Example 8, δ-(2,3-dehydrothiazolin-2-yl)amino-L-norvaline dihydrochloride] | 9.6 | 3.32 | 0.564 ± 0.284 | 5.9 | 5.41 | –
7 | CSC(=N)NCCCC[C@H](N)C(=O)O.Cl.Cl [Example 10, ε-(S-methylisothioureido)-L-norleucine dihydrochloride] | 8.3 | 6.41 | 1.26 | 5.1 | 10.4 | –
8 | CCCSC(=N)NCCC[C@H](N)C(=O)O [Example 12, δ-(S-(n-propyl)isothioureido)-L-norvaline] | 3.4 | 12.5 | 1.34 | 9.3 | 4.5 | –
9 | C=CCNC(=N)NCCC[C@H](N)C(=O)O [L-ALA, N^G -allyl-L-arginine, reference compound] | 12.1 | – | – | 15.2 | 12 | –
10 | N=C(NCCC[C@H](N)C(=O)O)NC1CC1 [L-CPA, N^G -cyclopropyl-L-arginine, reference compound] | – | 1.48 | – | – | – | IC50 (iNOS [2]; [4]): 7.15 µM
11 | COC(=O)[C@@H](N)CCCNC(=N)N[N+](=O)[O-] [L-NAME, N^G -nitro-L-arginine methyl ester, reference compound] | – | – | – | – | – | IC50 (iNOS [2]; [4]): 13.5 µM
12 | CC(=N)NCCC[C@H](N)C(=O)O [L-NIO, N^G -iminoethyl-ornithine, reference compound] | – | – | – | – | 0.458 ± 0.0858 | –
